For nine compounds, GI50 and TGI results are on record in PubChem BioAssay (NCI).

Some test systems named below: A549 NSCLC; ACHN renal; CCRF-CEM leukemia; HCT-15 colon; MCF7 breast; NCI-H226 lung; NCI-H522 lung; OVCAR-3 ovarian; SF-539 CNS; SNB-75 CNS.
Common to all, as to assay: inhibition of tumour cell growth, NCI panel, 48 h

Each structure is given as a SMILES string.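 1) Cells in 96-well plates. 2) Compound, 48 h, 5 concentrations. 3) Linear interpolation between surrounding doses. 4) Unreached endpoint = highest concentration. GI50 = concentration required for 50% inhibition of growth. Definition used: TGI = concentration required for complete inhibition of growth.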 Some results are limits rather than exact numbers.

For the compound `COc1cc(-c2cc3ncccc3c3nc(N)c4cccnc4c23)cc(OC)c1OC`, the GI50 is 0.434 µM in the test on A549 NSCLC; 0.769 µM with ACHN renal; 0.481 µM with CCRF-CEM leukemia; 0.44 µM in the test on HCT-15 colon; 0.327 µM in the test with MCF7 breast; 16.8 µM with NCI-H226 lung. Moreover, the GI50 in the test on NCI-H522 lung was 0.0576 µM; with OVCAR-3 ovarian, 0.229 µM; in the test with SF-539 CNS, 0.361 µM. In addition, the TGI is 12.9 µM in the test on A549 NSCLC; 19.1 µM with ACHN renal; 30.2 µM in the test with CCRF-CEM leukemia; 61.9 µM with HCT-15 colon; more than 100 µM in the test on MCF7 breast; more than 100 µM in the test on NCI-H226 lung. The TGI in the test with NCI-H522 lung stood at 12 µM; in the test with OVCAR-3 ovarian it was 2.68 µM; with SF-539 CNS, 2.6 µM.

Regarding `[Cl][Hg][Cl]`, the GI50 in the test with A549 NSCLC is 20.2 µM; in the test with ACHN renal it was 18 µM; with CCRF-CEM leukemia it was 1.83 µM; in the test with HCT-15 colon it was 15.8 µM; in the test with MCF7 breast, 12.5 µM; in the test on NCI-H226 lung, 25.1 µM. Further, the GI50 is 15.9 µM in the test with OVCAR-3 ovarian, 18.3 µM with SF-539 CNS and 18 µM with SNB-75 CNS. Also, the TGI in the test with A549 NSCLC was 39.3 µM; in the test with ACHN renal, 32 µM; with CCRF-CEM leukemia, 7.38 µM; in the test on HCT-15 colon, 30.1 µM; with MCF7 breast, more than 56 µM; with NCI-H226 lung, 47.7 µM. In addition, the TGI in the test with OVCAR-3 ovarian amounted to 32.1 µM; with SF-539 CNS, 33.5 µM; with SNB-75 CNS, 34.8 µM.

`C=C1C(=O)O[C@H]2C[C@@H]1CC/C(C)=C/CC/C(C)=C/CC[C@H]2C`: the GI50 with A549 NSCLC is 9.73 µM; with ACHN renal, 10.6 µM; in the test with CCRF-CEM leukemia it was 18.8 µM; in the test with HCT-15 colon, 15.7 µM; in the test on MCF7 breast, 14.7 µM; in the test on NCI-H522 lung, 23.5 µM. Further, the GI50 in the test on OVCAR-3 ovarian was 3.94 µM; in the test on SF-539 CNS, 15.7 µM; with SNB-75 CNS, 19.4 µM. The TGI in the test with A549 NSCLC is 33 µM; in the test on ACHN renal it was 24.6 µM; in the test on CCRF-CEM leukemia, 48.5 µM; in the test on HCT-15 colon it was 32.9 µM; with MCF7 breast it was 56.7 µM; with NCI-H522 lung, more than 66.3 µM. For the same compound, the figures for the TGI in the test with OVCAR-3 ovarian, with SF-539 CNS and in the test on SNB-75 CNS were 19 µM, 33.6 µM and 35.2 µM, respectively.

Take `C=C(c1ccc2nc(NC(=O)OC)[nH]c2c1)c1cccs1`: the TGI in the test with A549 NSCLC is more than 100 µM; in the test on ACHN renal, 7.47 µM; in the test with HCT-15 colon, 2.24 µM; in the test on MCF7 breast, more than 100 µM; in the test with NCI-H226 lung, more than 94.5 µM; in the test on SF-539 CNS it was 0.523 µM.

For the compound `CC(C)=CCc1c(OC(=O)c2c(C)cc(O)cc2O)cc(CO)c(CO)c1O`, the TGI in the test on A549 NSCLC is 62.2 µM; in the test with ACHN renal, 37.2 µM; in the test on HCT-15 colon, 34.6 µM; in the test with MCF7 breast it was 46.5 µM; with NCI-H226 lung, more than 100 µM; in the test on NCI-H522 lung it was 39.2 µM. Moreover, the values for the TGI with SF-539 CNS and with SNB-75 CNS were 38 µM and 40.7 µM, respectively.

In the case of `C=C1C(=O)O[C@@H]2C[C@@H](C)[C@@H]3C=CC(=O)[C@@]3(C)[C@@H](OC(=O)CC(=O)O[C@H]3[C@@H]4C(=C)C(=O)O[C@@H]4C[C@@H](C)[C@@H]4C=CC(=O)[C@]43C)[C@H]12`, the TGI came out at 2.46 µM in the test with A549 NSCLC; 0.189 µM with ACHN renal; 0.0376 µM in the test with CCRF-CEM leukemia; 0.0773 µM in the test on HCT-15 colon; 0.21 µM with MCF7 breast; 0.3 µM in the test with NCI-H226 lung. Besides, the results for the TGI with OVCAR-3 ovarian, in the test with SF-539 CNS and in the test on SNB-75 CNS were 0.159 µM, 0.0781 µM and 1.54 µM, respectively.

With `CC(C)CCC(=O)c1ccoc1`, the TGI in the test on A549 NSCLC, with ACHN renal, in the test with CCRF-CEM leukemia, with HCT-15 colon, in the test on MCF7 breast and with NCI-H226 lung was more than 100 µM in each case. Also, the TGI in the test on OVCAR-3 ovarian, with SF-539 CNS and in the test on SNB-75 CNS was more than 100 µM throughout.

As to `CCCCCC(=O)C(C)C1=Nc2nnc(CCCCCCCc3nnc4n3C(=O)C(C(C)C(=O)CCCCC)=N4)n2C1=O` (stereo unspecified), the TGI with A549 NSCLC, in the test on ACHN renal, in the test on CCRF-CEM leukemia, with HCT-15 colon, in the test with NCI-H226 lung and in the test with NCI-H522 lung was more than 100 µM throughout. Also, the TGI in the test with OVCAR-3 ovarian, with SF-539 CNS and with SNB-75 CNS was more than 100 µM throughout.

With `CCC[CH2][Sn]([CH2]CCC)([CH2]CCC)[O]c1ccc(Cl)cc1Cl`, the GI50 is 0.159 µM in the test on A549 NSCLC; 0.155 µM in the test with ACHN renal; 0.156 µM in the test with HCT-15 colon; 0.125 µM in the test with MCF7 breast; 0.149 µM in the test on NCI-H522 lung; 0.128 µM with OVCAR-3 ovarian. The GI50 in the test with SF-539 CNS was 0.179 µM; in the test on SNB-75 CNS, 0.152 µM. The TGI with A549 NSCLC is 0.345 µM; with ACHN renal, 0.291 µM; in the test with HCT-15 colon, 0.333 µM; in the test with MCF7 breast, 0.255 µM; in the test with NCI-H522 lung, 0.297 µM; in the test on OVCAR-3 ovarian, 0.259 µM. In addition, the TGI is 0.372 µM with SF-539 CNS and 0.445 µM in the test with SNB-75 CNS.
